Where two headings read alike, the source gives them in different places.
Assays:
[1] = system: DENV (Dengue virus type 2, strain New Guinea C)
[2] = system: ZIKV-mCherry (Cambodian strain FSS13025); experiment: microbe, parasite or virus in culture; format: cell-based, Zika virus; conditions: for AC50: Zika virus, Vero
in vitro [3] = conditions: human
[4] = system: wild-type ZIKV (Ugandan MR766 strain) in Vero cells; experiment: ZIKV cytopathic effect (CPE) inhibition qHTS assay, CellTiter-Glo readout; format: cell-based, Zika virus; conditions: for IC50: 48 h, read-out: ZIKV-infection (CPE, ZIKV Antiviral Assays), IC50
[5] = system: caspase-3 activity induced by ZIKV in Vero cells; experiment: cells; format: cell-based; conditions: Zika virus, Vero, 48 h, read-out: Caspase 3 (ZIKV Antiviral Assays), IC50
in vitro [6] = conditions: African green monkey; for CC50 at 48 h: Vero cells
[7] = system: ZIKV-RLuc (Cambodian strain FSS13025); experiment: microbe, parasite or virus in culture; format: cell-based, Zika virus; conditions: for IC50 / AC50: Zika virus, Vero; for IC50: 48 h, read-out: Rluc-ZIKV (ZIKV Antiviral Assays), IC50
[8] = system: mCherry-ZIKV in human neuronal progenitor cells; experiment: microbe, parasite or virus in culture; format: cell-based, Zika virus; conditions: for AC50 / IC50: Zika virus, Neuronal progenitor cell; for IC50: read-out: NPC (ZIKV Antiviral Assays), IC50
in vitro [9] = conditions: human; remark: listed apart in the source
[10] = read-out: Log AC50 (M) (converted)
[11] = Zika virus, Vero, read-out: Log AC50 (M) (converted)

Compound | WHV active Yes/No (WNV (Kern515/WN02)) | DENV active Yes/No [1] | CC-v2 (curve class of the dose response curve) [2] | Efficacy (difference between neutral response and maximum compound response) [2] | Max Resp (difference between neutral response and response at highest compound concentration) [2] | AC50 [2] | AC50 [2, 10] | ZIKV active Yes/No (ZIKV) | YFV active Yes/No (YFV (YFV 17D)) | Efficacy [4] | AC50 ([4]; Zika virus, Vero) | IC50 ([4]; Zika virus, Vero) | IC50 [5] | CC50 at 48 h (in vitro [6]) | IC50 [7] | AC50 [4, 11] | Antiviral activity in human NPC [8] | Efficacy [8] | Max Resp [8] | AC50 [8] | also measured
CC1(C)CC2C(O)C3=C(CC(C)(O)C2C1)C(=O)OC3 (stereo not drawn) [NCGC00385131-01] | No | No | -1.2 | -69.698 | -44.202 | 2.67e-09 M | 2.67e-09 M | No | No | -83.269 | 2.31e-05 M | 23.1 µM | 8.31 µM | > 50 µM | 0.02 µM |  |  |  |  |  | CC50 (in vitro [3]): > 30 µM; Curve class [4]: -3; AC50 ([4]; Zika virus, Vero, read-out: Log AC50 (converted)): 2.31e-05 M; Emax ([4]; Zika virus, Vero, read-out: Max response): 3.01%
CC(=O)OC[C@]12[C@H](OC(C)=O)C(=O)[C@@H]3[C@@H](O)[C@@]14O[C@@]3(C)COC(=O)c1cccnc1[C@@H](C)[C@H](C)C(=O)O[C@@H]([C@H](OC(C)=O)[C@@H]2OC(C)=O)[C@]4(C)O [NCGC00385298-01] |  |  | -1.3 | -66.581 | -100.048 | 3.53e-06 M | 3.53e-06 M |  |  | -97.679 | 1.72e-05 M | 17.2 µM | 9.86 µM |  | 9.81 µM | 1.72e-05 M |  |  |  |  | AC50 (Vero cells): 9.81 µM; Log AC50 (M) (Vero cells): -5.0083 M; CC50 (in vitro [3]): > 30 µM; CC-v2 (curve class classification of the dose response curve) [4]: -2.1; CC50 (in vitro [6]): > 50 µM; CC-v2 (curve class classification v2 of the dose response curve) [7]: -2.3; Efficacy (difference between neutral response and maximum compound response) [7]: -117.521; Max Resp (difference between neutral response and compound response for highest compound concentration) [7]: -98.025; AC50 [7]: 9.81e-06 M; AC50 [7, 10]: 9.81e-06 M
OC1C=C2C3CN(Cc4cc5c(cc43)OCO5)C2CC1O (stereo not drawn) [NCGC00385948-01] | Yes | Yes | -1.2 | -44.826 | -97.729 | 2.67e-06 M | 2.67e-06 M | Yes | No | -79.681 | 2.59e-05 M |  | 4.17 µM |  | 9.28 µM | 2.59e-05 M | effectively inhibited ZIKV in NPC cells | -64.358 | -62.953 | 1e-05 M | CC-v2 (curve class) [8]: -1.2; AC50 [8, 10]: 1e-05 M; IC50 [8]: 10 µM; Activity against WNV (WNV (Kern515/WN02)): weaker against WNV and ZIKV; SI value WHV (CC50/EC50) (WNV (Kern515/WN02)): 7.6; Selectivity Index WHV (CC50/EC50) (WNV (Kern515/WN02)): 8; CC50 (in vitro [9]): > 30 µM; Activity against DENV [1]: active against DENV; SI value DENV (CC50/EC50) [1]: 16; Selectivity Index DENV (CC50/EC50) [1]: 16; Activity against ZIKV (ZIKV): weaker against WNV and ZIKV; SI value ZIKV (CC50/EC50) (ZIKV): 4.7; Selectivity Index ZIKV (CC50/EC50) (ZIKV): 5; CC-v2 (curve class classification of the dose response curve) [4]: -2.2; CC50 (in vitro [6]): > 50 µM
CC(C)(C#N)c1ccc(N2C(=O)OCc3cnc4ccc(-c5cnc6ccccc6c5)cc4c32)cc1 [NCGC00386292-05] | No | No | -1.2 | -67.723 | -93.524 | 5.32e-07 M | 5.32e-07 M | Yes | No | -23.858 | 4.61e-06 M | 4.61 µM | 0.04 µM | > 50 µM | 2.93 µM | 4.61e-06 M | moderate antiviral activity | -38.419 | 3.825 | 2.51e-05 M | AC50 [8, 10]: 2.51e-05 M; IC50 [8]: 25.1 µM; CC50 at 24 h (in vitro [9]): > 30 µM; SI value ZIKV (CC50/EC50) (ZIKV): 3; Selectivity Index ZIKV (CC50/EC50) (ZIKV): 3
C=C(F)c1sc(CNCCCNc2cc(=O)c3ccccc3[nH]2)c(C)c1Br [NCGC00386616-01] | No | No | -1.4 | -70.696 | -94.173 |  |  | No | No | -30.953 | 2.06e-05 M | 20.6 µM | 1.05 µM | > 50 µM | 8.27 µM | 2.06e-05 M | moderate antiviral activity | -88.323 | -56.18 | 3.98e-05 M | CC-v2 (curve class) [8]: -2.2; AC50 [8, 10]: 3.98e-05 M; IC50 [8]: 39.8 µM; CC50 at 24 h (in vitro [9]): > 30 µM
